pKd: −log10 of the molar value.
Assays:
[1] = system: Enterococcus faecium ATCC 51559; test: NCCLS broth microdilution MIC; type: cell-based; conditions: Col. D = E. faecium ATCC 51559 (VRE)
Source text: (§1) In vitro antibacterial activity data were collected for the following Gram-positive bacteria: Staphylococcus aureus (ATCC 27660, ATCC 33591 and ATCC 43300, all methicillin resistant strains (MRSA's)); Streptococcus pneumoniae (ATCC 51422, a penicillin resistant strain (PRSP)), Enterococcus faecium (ATCC 51559, and/or a vancomycin resistant strain (VRE)). Additionally, antifungal activity data were collected for Candida albicans (ATCC 38247). Minimal inhibition concentrations (MIC's) were determined using the National Committee for Clinical Laboratory Standards (NCCLS) broth microdilution assay in microtiter plates, as set forth in: (1) the guidelines of the National Committee for Clinical Laboratory Standards (NCCLS) Document M7-A4 (NCCLS, 1997); (2) the guidelines of the National Committee for Clinical Laboratory Standards (NCCLS) Document M11-A4 (NCCLS, 1997); and (3) the guidelines and reference method of the National Committee for Clinical Laboratory Standards (NCCLS) Document M27-T (NCCLS, 1995). For antifungal essays, the method recommended in Murray, PR., 1995 Manual of Clinical Microbiology (ASM Press, Washington, D.C.), was employed.

[2] = system: Streptococcus pneumoniae ATCC 51422; test: NCCLS broth microdilution MIC; type: cell-based; conditions: Col. E = S. pneumoniae ATCC 51422 (PRSP)
Source text: as §1

[3] = molecular target: target sequence AATTAATCAT (352 bp fragment, Plasmid C); test: Quantitative DNase I footprint titration; type: binding; conditions: 352 bp C, 22° C., pH 7.0, read-out: Dissociation Constant Kd
Source text: (§2) Compounds (1) through (20) according to this invention were screened for their ability to bind to specified DNA target sequences, using DNase I footprinting. Generally, the procedure described in Dervan, WO 98/50582 (1998), was followed.
(§3) Three double stranded circular plasmids A, B, and C were used to prepare double stranded DNA-binding probes containing the target sequences for the DNase I footprint titration experiments. Plasmids A, B, and C had nucleotide sequences given by SEQ ID NO. I, SEQ ID NO. II, and SEQ ID NO. III, respectively.
(§4) The 3′-P32 end-labeled EcoRI/PvuII fragments from each plasmid were prepared by digesting the plasmids with EcoRI and PvuII with simultaneous fill-in using Sequenase v. 2.0, [alpha-P32]-deoxyadenosine-5′-triphosphate, and [alpha-P32]-thymidine-5′-triphosphate, and isolating the cloned fragments by nondenaturing gel electrophoresis. A and G sequencing reactions were carried out as described (See Maxam and Gilbert, Methods Enzymol., 1980, 65, 499-560; Iverson and Dervan, Methods Enzymol., 1987, 15, 7823-7830; Sambrook et al., 1989, Molecular Cloning, 2nd ed., Cold Spring Harbor Laboratory Press: Cold Spring Harbor, N.Y.) Standard methods were used for all DNA manipulations (Sambrook et al., ibid.) The cut sites for EcoRI and PvuII are indicated by bars in the respective maps of Plasmids A, B, and C in FIGS. 5, 6, and 7.
(§5) The 351 base pair dsDNA restriction fragment (SEQ ID NO. IV) of Plasmid A contained the target sequences AAAAAGCAAAAA, AAAAAGACAAAAA, and AAAAAGTACAAAAA. The 310 base pair dsDNA restriction fragment (SEQ ID NO. V) of Plasmid B contained the target sequences AGTACT, AATACT, and ATTACT. The 352 base pair dsDNA restriction fragment (SEQ ID NO. VI) of Plasmid C contained the target sequences TGACAATTAAT, GACAATTAATCA, AATTAATCAT, ACAATTA, and ACAATTAAT. These fragments were used for quantitative DNase I footprinting experiments. Compounds used in the method of this invention bind to at least one of the target sites with a equal to or less than 100 nM, preferably equal to or less than 50 nM, and more preferably equal to or less than 20 nM. The target sequences were selected for the identity with, or similarity to, promoter sites for bacterial genes.
(§6) Quantitative DNase I footprint titration experiments were carried out as described previously (Dervan, WO 98/50582, 1998) with the following changes. All reactions were carried out in a total volume of 400 μL, with compound stock solution or water added to 15,000 cpm radiolabeled restriction fragment affording final solution conditions of 10 mM Tris HCl, 10 mM KCl, 10 mM MgCl2, 5 mM CaCl2, pH 7.0 and 0.01 nM, 0.1 nM, 1.0 nM, 10.0 nM compound or no compound for reference lanes. The compounds were allowed to equilbrate at 22° C. for 16 h. Footprinting reactions were initiated with addition of 10 μL of a DNase I stock solution (at the appropriate concentration to give ˜50% intact DNA) containing 1 mM DTT and allowed to proceed for 7 min at 22° C. The reactions were stopped, ethanol precipitated, resuspended in loading buffer, heat denatured, and placed on ice as described previously (Dervan WO 98/50582, 1998). The reaction products were separated on a precast 8% polyacrylamide denaturing sequencing Castaway gel with 32 preformed wells from Stratagene in 1×TBE at 2000 V. Gels were dried according to the manufacturer and exposed to a storage phosphor screen (Molecular Dynamics). Quantitation and data analysis were carried out as described in Dervan, WO 98/50582, 1998.

S. aureus ATCC 27660 = test: NCCLS broth microdilution MIC; type: cell-based, Staphylococcus aureus; conditions: Col. A = S. aureus ATCC 27660 (MRSA)
Source text: as §1

S. aureus ATCC 33591 = test: NCCLS broth microdilution MIC; type: cell-based, Staphylococcus aureus; conditions: Col. B = S. aureus ATCC 33591 (MRSA)
Source text: as §1

[4] = system: Candida albicans ATCC 38247; test: Antifungal MIC; type: cell-based; conditions: Col. F = C. albicans ATCC 38247
Source text: as §1

[5] = molecular target: target sequence TGACAATTAAT (352 bp fragment, Plasmid C); test: Quantitative DNase I footprint titration; type: binding; conditions: 352 bp C, 22° C., pH 7.0, read-out: Dissociation Constant Kd
Source text: as §2, §3, §4, §5, §6

[6] = molecular target: target sequence […] (351 bp fragment, Plasmid A); test: Quantitative DNase I footprint titration; type: binding; conditions: AAAAAGTACAAAAA, 351 bp A; 22° C., pH 7.0; read-out: Dissociation Constant Kd
Source text: as §2, §3, §4, §5, §6

[7] = molecular target: target sequence GACAATTAATCA (352 bp fragment, Plasmid C); test: Quantitative DNase I footprint titration; type: binding; conditions: 352 bp C, 22° C., pH 7.0, read-out: Dissociation Constant Kd
Source text: as §2, §3, §4, §5, §6

[8] = system: methicillin resistant Staphylococcus aureus ATCC 33591; test: Murine neutropenic thigh model; type: in vivo; conditions: neutropenic CF1 mice, 50 mg/kg intravenously 2 h post infection, 24 hr after treatment, vehicle 8.03
Experimental: A S. aureus ATCC 33591 culture was grown to log phase overnight and diluted in phosphate buffered saline (pH 7.2) to an optical density of about 0.1 at 600 nm, giving an approximate concentration of 10^8 cfu/mL. The suspension was diluted 1:100 in phosphate buffered saline (pH 7.2) for a final concentration of 10^6 cfu/mL.
Outbred female CFI mice (approx. 20 gram body weight) were rendered netutropenic by treatment with cyclophosphamide (200 mg/kg body weight, intraperitoneal injection) at 2 and 4 days prior to inoculation. Groups of 5 mice were inoculated with 0.05 mL of the bacteria (approx. 10^6 cfu/mL) into the anterior thigh. Each group was treated intravenously two hours post infection with vehicle (phosphate buffered saline) or test compound. The mice were sacrificed at either 6 or 24 hrs after treatment and thighs were collected aseptically. Each thigh was weighed, placed into sterile saline, and homogenized. The tissue homogenates were diluted appropriately for plating on agar plates. Colony counts were recorded (cfu/gram) and compared to control groups.

S. aureus ATCC 43300 = test: NCCLS broth microdilution MIC; type: cell-based, Staphylococcus aureus; conditions: Col. C = S. aureus ATCC 43300 (MRSA)
Source text: as §1

Row | pKd [7] | SMILES | Minimum Inhibitory Concentration (MIC) [1] | Minimum Inhibitory Concentration (MIC) [2] | pKd [3] | Minimum Inhibitory Concentration (MIC) (S. aureus ATCC 27660) | Minimum Inhibitory Concentration (MIC) (S. aureus ATCC 33591) | Minimum Inhibitory Concentration (MIC) [4] [µg/mL] | pKd [5] | pKd [6] | Colony Count [8] [log cfu/gram] | Minimum Inhibitory Concentration (MIC) (S. aureus ATCC 43300)
1 | – | Cn1cc(NC(=O)c2sc3ccccc3c2Cl)cc1C(=O)Nc1cc(C(=O)NCCN2CCCCC2)n(CCN2CCOCC2)c1 [Compound 16] | ++ (++ = MIC ≦ 1) | ++ (++ = MIC ≦ 1) | 8.00 | ++ (++ = MIC ≦ 1) | ++ (++ = MIC ≦ 1) | 4 | – | – | – | –
2 | – | CC(C)N(CCNC(=O)CCNC(=O)c1cc(NC(=O)c2cc(NC(=O)CCNC(=O)c3cc(NC(=O)c4cc(NC(=O)c5cc(Br)c(Br)s5)cn4C)cn3C)cn2C)cn1C)C(C)C [Compound 2] | + (+ = MIC ≦ 2) | ++ (++ = MIC ≦ 1) | – | ++ (++ = MIC ≦ 1) | − (− = MIC > 2) | >32 | 8.00 | 9.70 | – | –
3 | – | Cn1cc(NC(=O)c2sc3ccccc3c2Cl)cc1-c1nc2ccc(C(=O)NCCN3CCCCC3)cc2[nH]1 [Compound 18] | ++ (++ = MIC ≦ 1) | ++ (++ = MIC ≦ 1) | 8.30 | ++ (++ = MIC ≦ 1) | ++ (++ = MIC ≦ 1) | >32 | – | – | – | –
4 | – | Cn1cc(NC(=O)c2cc(NC(=O)c3cc(NC(=O)c4ccc(F)cc4F)cn3C)cn2C)cc1C(=O)NCCN1CCCCCC1 [Compound 15] | + (+ = MIC ≦ 2) | ++ (++ = MIC ≦ 1) | 8.70 | ++ (++ = MIC ≦ 1) | − (− = MIC > 2) | 8 | – | – | – | –
5 | – | CCN(CC)CCCNC(=O)CCNC(=O)c1cc(NC(=O)c2cc(NC(=O)CCNC(=O)c3cc(NC(=O)c4cc(NC(=O)c5cc(Br)c(Br)s5)cn4C)cn3C)cn2C)cn1C [Compound 4] | − (− = MIC > 2) | ++ (++ = MIC ≦ 1) | – | ++ (++ = MIC ≦ 1) | ++ (++ = MIC ≦ 1) | >32 | 8.00 | 11.00 | – | –
6 | ≥ 10.00 | Cn1cc(NC(=O)c2sccc2Cl)cc1C(=O)Nc1cc(-c2nc3ccc(C(=O)NCCN4CCOCC4)cc3[nH]2)n(C)c1 [Compound 12] | ++ (++ = MIC ≦ 1) | ++ (++ = MIC ≦ 1) | – | ++ (++ = MIC ≦ 1) | − (− = MIC > 2) | >32 | – | – | 6.96 | –
7 | – | Cn1cc(NC(=O)c2cc(NC(=O)CCNC(=O)c3cc(NC(=O)c4cc(NC(=O)c5cc(Br)c(Br)s5)cn4C)cn3C)cn2C)cc1C(=O)NCCC(=O)NCCN1CCCCC1 [Compound 3] | + (+ = MIC ≦ 2) | ++ (++ = MIC ≦ 1) | – | ++ (++ = MIC ≦ 1) | ++ (++ = MIC ≦ 1) | >32 | 8.70 | 11.00 | – | –
8 | ≥ 9.00 | Cn1cc(NC(=O)c2cc(NC(=O)c3cc(NC(=O)c4sccc4Cl)cn3C)cn2C)cc1C(=O)NCCN1CCSCC1 [Compound 11] | + (+ = MIC ≦ 2) | ++ (++ = MIC ≦ 1) | – | + (+ = MIC ≦ 2) | − (− = MIC > 2) | >32 | – | – | – | –
9 | – | Cn1cc(NC(=O)c2cc(NC(=O)c3cc(NC(=O)c4sc5ccccc5c4Cl)cn3C)cn2C)cc1C(=O)NCCN1CCOCC1 [Compound 8] | ++ (++ = MIC ≦ 1) | ++ (++ = MIC ≦ 1) | 9.70 | ++ (++ = MIC ≦ 1) | ++ (++ = MIC ≦ 1) | >32 | – | – | – | ++ (++ = MIC ≦ 1)

Row | SMILES | pKd [7] | Minimum Inhibitory Concentration (MIC) [1] | Minimum Inhibitory Concentration (MIC) [2] | pKd [3] | Minimum Inhibitory Concentration (MIC) (S. aureus ATCC 27660) | Minimum Inhibitory Concentration (MIC) (S. aureus ATCC 33591) | Minimum Inhibitory Concentration (MIC) [4] [µg/mL] | pKd [5] | pKd [6] | Colony Count [8] [log cfu/gram] | Minimum Inhibitory Concentration (MIC) (S. aureus ATCC 43300)
10 | CN(C)CC(C)(C)CNC(=O)CCNC(=O)c1cc(NC(=O)c2cc(NC(=O)CCNC(=O)c3cc(NC(=O)c4cc(NC(=O)c5cc(Br)c(Br)s5)cn4C)cn3C)cn2C)cn1C [Compound 5] | 8.70 | − (− = MIC > 2) | ++ (++ = MIC ≦ 1) | – | ++ (++ = MIC ≦ 1) | ++ (++ = MIC ≦ 1) | >32 | – | 11.00 | – | –

Source: patent US20030199516A1, “Methods of treating infection by drug resistant bacteria” (Genesoft, Inc., priority 2001, published 2003)
